“Also recorded” adds a separate entry of the source.
Columns and labels:
Substrate RNA (SUB-156) = assay: RNase P-mediated cleavage assay, single turnover conditions; assay type: biochemical, hepatitis B virus (HBV); settings: 200 nM EGS, 20 nM substrate, saturating RNase P, 60 min
Procedure: RNase P-mediated cleavage assay--Human RNase P was purified from HeLa cells according to the published procedures (14). Substrate RNA (SUB-156, FIG. 24) was 5'-end labeled using T4 polynucleotide kinase and [γ-^32P]ATP. The labeling mixture was then heated to 85° C. for 1 min, diluted with RNase-free water, and purified by a MICROSPIN™ G-25 column (Pharmacia) according to the manufacturer's instructions. Cleavage reactions were conducted in a reaction buffer containing 50 mM Tris-HCl (pH 7.4), 25 mM KCl, 10 mM MgCl2 and 0.1 mM EDTA. EGS oligomers and ^32 p-5'-end-labeled RNA substrate were heated in the reaction buffer without MgCl2 to 85° C. for 1 min and then slowly cooled to room temperature. The cleavage reaction was initiated by adding 2 μl of 100 mM MgCl2 and 3 μl of RNase P (enzyme activity for this preparation: cleavage of 0.035 pmol of tRNA^Tyr precursor min^-1 μl^-1). The final reaction volume was 20 μl and the reaction was incubated at 37° C. for 60 min. […] For each sample, cleavage reactions were performed in duplicates and the average values were used. To ensure reproducibility, cleavage assays for each EGS were also repeated in two separate experiments. The all-RNA EGS-159 was used as the reference sample and its cleavage values were counted as 100%. Cleavage percentages of all other EGSs were normalized against EGS-159 (Rel. Cleavage %) except in FIG. 30 and FIG. 31 where absolute cleavage percentages (Abs. Cleavage %) were plotted.
For EGS-single turnover conditions, the final concentrations were 200 nM for EGS and 20(nM for the RNA substrate. For EGS-multiple turnover conditions, the final concentrations were 200 nM for the RNA substrate and 40 nM for EGS. When determination of the time-course was required, the reaction volume was increased to 40 μl. Aliquots of 5-8 μl were removed from the reaction mixture at different time points (e.g. 1, 5, 15, 30 and 60 min), quenched in formamide loading buffer, and loaded onto 15% polyacrylamide/8 M urea gels. Quantitation of the cleavage product and the remaining RNA substrate was achieved using a Molecular Dynamics PHOSPHORIMAGER™.
General considerations--To select lead nuclease-resistant oligonucleotide prototypes as external guide sequences among many possible modifications, a reliable yet rapid in vitro cleavage assay for routine screening was used. Human RNase P, a ribonucleoprotein, is composed of a 340-nt H1 RNA component and one or more proteins (for recent review, see Ref. 16). A 3-step screening strategy was devised: 1) All analogues once synthesized were tested by a fast qualitative cleavage assay under single turnover conditions with 10-fold excess of EGS over target RNA substrate for 60 min. […] This was the best cleavage condition used in this study. Any analogue with a reasonable activity (e.g. more than 5% cleavage) would not be missed, under these circumstances, due to the high detection sensitivity provided by PHOSPHORIMAGER™. 2) Promising analogues were then assayed for stability in 50% human serum.

[1] = Nuclease resistance studies in 50% human serum; assay type: in vitro ADME; settings: 37° C., 24 h
Procedure: Nuclease resistance studies--100 μl of EGS oligonucleotides (5 μM), containing a trace of 5'-end-labeled oligomers, were incubated at 37° C. for different time periods (0-24 h) with 50% human serum (Sigma, S-7023). 20 μl aliquots were diluted to 100 μl with RNase-free water, phenol/chlorform extracted, and ethanol precipitated. The residue was resuspended in 10 μl of TE and 10 μl of 2× gel loading buffer containing 98% formamide, 10 mM1 EDTA and 0.1% bromophenol blue. The mixture was heated to 85° C. for 1 min, quickly cooled on ice and frozen at -20° C. prior to electrophoresis on 15% polyacrylamide/8 M urea gels. Gels were subsequently scanned on a Molecular Dynamics PHOSPHORIMAGER™, and the stability profile for each, oligomer was estimated from the ratio of the remaining intact materials versus all radio-labeled materials (intact oligomers plus degradation products). Stability studies of non radio-labeled EGS oligomers using capillary gel electrophoresis were also carried out according to the method of Leeds et al. (15).

[2] = tested on: EGS/target RNA complex (SUB-156) with human RNase P; assay: Measurements of kcat and A50; assay type: biochemical, hepatitis B virus (HBV)
Procedure: Measurements of kcat, Km and A50 --Measurements of these kinetic parameters were carried out using conditions similar to those described above (e.g. identical cleavage buffers). For kcat measurements, aliquots were taken every 30-60 s for the first 5 min. The logarithm of the percentage of cleavage (Abs. Cleavage %) was plotted against time, and the data points were fitted using a linear least-squaresanalysis. The slope represents kcat values. For Km measurements,a fixed amount of RNase P (0.6 μl) was used, while substrate concentrations (i.e. EGS/target RNA complex) varied from 25 to 500 nM. Several EGS/target RNA ratios were assayed including 1:1, 5:1 and 10:1. Attempts were made to obtain Km and Vmax values from linear Lineweaver-Burk or Eadie-Hofstee plots. The scattered values could not be fit as a hyperbolic function. For A50 measurements, the ratio between EGS and target RNA was kept as 10:1. Various amounts of RNase P (0.3 to 3 μl) were used to conduct a 60-min cleavage reaction. Percentage of cleavage was plotted against [RNase P] in μl, and 50% cleavage values (A50) were determined using a non-linear, least-squares routine (Kaleidagraph, Synergy Software). The amount of RNase P required to reach A50 was then converted to enzyme unit. 1 unit of RNase P represents the amount of RNase P that catalyzes the conversion of 1 pmol of tRNA^Tyr precursor to cleavage products per minute per μl of the enzyme preparation. 1 unit of RNase P preparation used for this study equals 28.57 μl.

[3] = tested on: short substrate (SEQ ID NO. 1) derived from the full-length pre-genomic HBV RNA; assay: RNAse P cleavage assay, short substrate; assay type: biochemical; settings: for efficiency of RNase P-mediated target cleavage relative to the wild-type EGS: short substrate, EGS 200 nM, 37° C., 1 hour
Procedure: RNAse P Cleavage Assays: Cleavage reactions were carried out generally according to the procedure described by Yuan et al., Proc. Natl. Acad. Sci., USA, 89:8006-8010, (1992), which is hereby incorporated by reference. Briefly, short substrate reactions were made up to a total volume of 31μ in 50 mM Tris-HCl pH 7.4, 10 mM MgCl2, 25 mM KCl, 0.1 mM EDTA, […] at 37° C. for 1 hour. After incubation, the reaction solution was mixed with loading buffer (98% formamide, 10 mM EDTA, 0.025% bromophenol blue). The cleaved substrate was separated from the uncleaved by electrophoresis on a 15% acrylamide gel containing 7 M urea. The bands were quantified on a Molecular Dynamics PHOSPHORIMAGER™.
The bands corresponding to the precursor RNA substrate and the resulting two cleavage products were counted from the dried gel using a BETASCOPE™ gel analyzer (Betagen).
RNAse P was purified by DEAE SEPHAROSE™ chromatography and glycerol density gradient centrifugation essentially as described by Bartkiewicz et al., Genes Dev. 3:488-499 (1989), which is hereby incorporated by reference.
The percentage of precursor RNA substrate remaining in either assay was plotted as function of the EGS concentration and the catalytic efficiency expressed as kcat /Km (where kcat is the rate constant of cleavage and Km is the Michaelis constant), the second order rate constant for the reaction of free EGS and substrate. Following the methods of Heidenreich and Eckstein (J. Biol. Chem., 267:1904-1909 (1992), the efficiency of the cleavage reaction, kcat /Km), was determined using the formula
The EGS constructs described in Example 2 were assayed using the RNAse P cleavage assays described in Example 1 to determine the efficiency of the cleavage reaction. FIG. 1 depicts the model system using a short substrate which was used to evaluate the ability of modified EGS molecules in inducing RNase P-mediated target cleavage. The sequence of the short substrate (SEQ ID NO. 1) was derived from the full-length pre-genomic HBV RNA.

[4] = Fetal Calf Serum Stability Assay; assay type: in vitro ADME; settings: 10% heat-inactivated fetal calf serum, EGS about 5 μM
Procedure: Fetal Calf Serum Stability Assay: The nuclease resistance of modified EGS molecules were tested in a Fetal Calf Serum (FCS) Assay. It was reported by Shaw et al., Nucleic Acids Res. 19:747-750 (1991), that 10% FCS, when heated inactivated, mimics rather closely the human serum. The assay conditions were very similar to that previously described by Hoke et al., Nucleic Acids Res. 19:5743-5748 (1991). Briefly, an EGS analog to be tested was 5'-end labeled with T4 polynucleotide kinase and [γ-^35 S] ATP (this procedure can generate radiolabeled oligonucleotides which are resistant against dephosphorylation). The labeled EGS was then purified by phenol/chloroform extraction, followed by a Sephadex G-25 spin-column filtration. The purified EGS was mixed with cold EGS and 10% heat-inactivated fetal calf serum (FCS) so that the final concentration of EGS was about 5 μM. EGS analogues were treated over a period of 24 hours. Aliquots were withdrawn from the reaction mixture at different time points, mixed with 2× loading dye, heat inactivated at 90° C. for 3 min, then stored at -20° C. The results were analyzed on 12% polyacrylamide/7 M urea gels.

2.1 kb HBV RNA = assay: RNAse P cleavage of large target RNA; assay type: biochemical; settings: 250 nM EGS, 30 minutes at 37° C.
Procedure: To test cleavage with a longer target RNA molecules, different reaction conditions were used. Reactions in a total volume of 10 μl contained 40 mM Tris-HCl (pH 7.4), 10 mM MgCl2, 1 mM spermidine 10 mM dithiothreitol, 0.05 μg/μl nuclease-free bovine serum albumin, 0.01% (v/v) Triton-X100™, 0.8 Units/μl RNASIN, 0.2 mM ATP, 0.2 mM GTP, 0.2 mM UTP, 0.2 mM CTP, 0.1 μCi/μl [a^32 P] CTP, 2 mM m^7 G(5')pppG, 0.06 μg/μl yeast RNA, 25 mM KCl, 3 Units T7 RNA polymerase, 250 nM EGS, 1 μl of human RNAse P and 3 ng/μl linearized plasmid. Reactions were initiated by the addition of linearized plasmid and incubated for 30 minutes at 37° C. Reactions were terminated by the addition of 10 μl of 80% formaemide, 10 mM EDTA, 0.1% bromphenol blue. After heating for 2 minutes at 90° C., samples were electrophoresed for 2 hours at 48 watts on a 5% denaturing polyacrylamide gel. After vacuum drying for 1 hour at 60° C., the gel was analyzed by phosphoimaging.
Cleavage of Large Target RNA: Plasmid pAYW2.1, containing the sequence that encodes the 2.1 kb RNA of the AYW strain of HBV, was linearized by digestion with Not I, and then transcribed by T7 RNA polymerase in the presence of [α^32 P]CTP. Labeled transcripts were incubated for 30 minutes at 37° C. with RNase P in the presence of various EGS molecules. Reaction products were subjected to denaturing polyacrylamide gel electrophoresis, and analyzed by phosphoimaging. EGS-mediated cleavage at the targeted site of the 2.1 kb transcript produces cleavage products that are approximately 1.7 and 0.4 kb in length.

EGS-398: lead prototype, U54 replaced with 2'-deoxyuridine, SEQ ID NO. 44 (guide AGAUGAUAGAAGGUUAGAAUCCUUCACGCCGC; 2'-deoxyuridine at tRNA position 54, rest of chemistry not given here)
RNase P-mediated cleavage activity compared to the all-RNA control (Substrate RNA (SUB-156)): promising | degradation in 50% human serum [1]: no degradation products were detected | A50 (amount of RNase P required to achieve 50% cleavage) ([2]; 60 min, EGS in 10-fold excess relative to the RNA target): 0.061 unit | kcat ([2]; single turnover, first 5 min): indistinguishable from that of the all-RNA control

INNO-139: SEQ ID NO. 3, variable loop deleted, 2'-O-methyl recognition sequences and T stem (CGAUGAAGGUUCGAAUCCUUCCCAGGAC; 2'-O-methyl modifications, chemistry not fully specified)
turnover of EGS-mediated cleavage ([3]; EGS 20 nM, target 400 nM (20 fold excess)): do not significantly affects turnover | efficiency of RNase P-mediated target cleavage relative to the wild-type EGS [3]: much of the lost activity can be restored | half-life in 10% FCS [4]: 2 h

INNO-140: all-RNA EGS without variable loop, SEQ ID NO. 3, 28 nucleotides (CGAUGAAGGUUCGAAUCCUUCCCAGGAC; guide RNA; RNA, backbone not given here)
half-life in 10% FCS [4]: less than 10 minutes

INNO-155: SEQ ID NO. 3, 2'-O-methyl, phosphorothioate T loop, 2'-O-methyl phosphorothioate end caps (CGAUGAAGGUUCGAAUCCUUCCCAGGAC; 2'-O-methyl, phosphorothioate T loop and end caps, positions not given here)
efficiency of RNase P-mediated target cleavage relative to the wild-type EGS [3]: capable of inducing an efficient target cleavage | half-life in 10% FCS [4]: more than 18 hours | RNase P-mediated cleavage of 2.1 kb HBV RNA (2.1 kb HBV RNA): capable of inducing RNase P-mediated cleavage; also recorded: partially cleaved

Reference: patent publication US6057153A, “Stabilized external guide sequences” (Yale University, priority 1997, dated 2000)
